Source: patent US11324832B2, “Tripartite modulators of endosomal G protein-coupled receptors” (Endosome Therapeutics, Inc., priority 2015, dated 2022)
Where a SMILES comes first, the peptide text is derived from it. Where no end group is shown, it is not given here. [ ]: non-standard residue; d: D form.

Legend:
[1] = Stability in human cerebrospinal fluid; assay type: in vitro ADME; conditions: Example 2, expected
Protocol: (§1) To assess stability in cerebrospinal fluid, spantide or Compound 1 (10 μg/ml) was incubated in human cerebrospinal fluid (0-4 h, 37° C.), and then snap frozen. Proteins were precipitated using ACN. To assess stability in the spinal cord, spantide or Compound 1 was injected intrathecally to mice (10 μM, 5 μl, L3/L4). After 3 hours, a spinal cord segment 5 mm on either side the injection site was removed and snap frozen. Tissues were crushed with a glass rod in a mixture of methanol (30 μl) and EDTA/KF (60 μl, 0.1 M EDTA, 4 g/l KF), vortexed and centrifuged to remove lipids. Peptides were extracted from the pellet with 0.5% formic acid in 75% ACN/H2O (100 μl). Samples were analyzed assayed by LC/MS using a Waters Xevo TQ or TQD triple quadrupole mass spectrometer coupled to a Waters UPLC. Peptides were separated by HPLC (Supelco Ascentis Express Peptide ES C18 column, 50×2.1 mm, 2.7 μm) with 0.05% formic acid in H2O and ACN as solvents. Peptides were quantified by comparison to calibration standards (50-50,000 ng/ml).

[2] = Stability in the spinal cord after intrathecal injection to mice; assay type: in vivo, mouse; conditions: 10 μM, 5 μl, spinal cord after 3 hours
Protocol: as §1

[3] = molecular target: NK1R (Rattus norvegicus, UniProt P14600); experiment: SP-stimulated Ca2+ signaling in HEK-NK1R cells, antagonist mode; assay type: cell-based; design: Full length and truncated 6312 rat HA-NK1R have been described; expressed in transfected cells; host or cells: HEK293 (transient)
Protocol: [Ca^2+]i was measured as described (Jensen, D. D. et al., J Biol Chem, 2014, 289, 20283-20294). HEK293 cells transiently expressing HA-NK1R or HA-CLR/Myc-RAMP1 were loaded with Fura2-AM (2 μM).

[4] = tested on: NK1R-positive neurons in lamina I of the dorsal horn; experiment: Cell-attached patch clamp recordings in rat spinal cord slices; assay type: cell-based; conditions: SP 1 μM, 2 min
Protocol: To evaluate whether NK1R endosomal signaling mediates this sustained activation, cell-attached patch clamp recordings were made from NKiR-positive neurons in lamina I of the dorsal horn in slices of rat spinal cord. […] These findings support a role for NK1R endocytosis in persistent neuronal excitation.
Parasagittal slices (340-400 μm) were prepared using a vibratome from the lumbar region of the rat spinal cord in ice-cold sucrose-based artificial CSF (sACSF) (mM: 100 sucrose, 63 NaCl, 2.5 KCl, 1.2 NaH2PO4, 1.2 MgCl2, 25 glucose, 25 NaHCO3; 95% O2/5% CO2). Slices were transferred to N-Methyl-D-Glucamine (NMDG)-based recovery ACSF (rACSF) (mM: 93 NMDG, 93 HCl, 2.5 KCl, 1.2 NaH2PO4, 30 NaHCO3, 20 HEPES, 25 glucose, 5 Na ascorbate, 2 thiourea, 3 Na pyruvate, 10 MgSO4, 0.5 CaCl2; 95% O2/5% CO2, 15 min, 34° C.). Slices were transferred to normal ACSF (mM: 125 NaCl, 2.5 KCl, 1.25 NaH2PO4, 1.2 MgCl2, 2.5 CaCl2, 25 glucose, 11 NaHCO3; 95% O2/5% CO2) containing 10 μM MK-801 (45 min, 34° C.), then maintained at RT.
Slices of rat spinal cord were transferred to a recording chamber and superfused with normal ACSF (2 ml·min^−1, 36° C.). […] PS2 was not soluble in the low concentrations of DMSO required for electrophysiology. Large, NKiR-positive, presumed nociceptive lamina I neurons were visually identified as described (Imlach, W. L., et al., Molecular Pharmacology, 2015, 88, 460-428). Spontaneous currents were recorded in cell-attached configuration (Multiclamp 700B, Molecular Devices, Sunnyvale, Calif.), sampled at 10 kHz, high pass filtered at 1 Hz, and capacitatively coupled action potential events were analyzed using Axograph X, V 1.4.4 (Axograph). Patch electrodes (resistance 2.5-3.5 MQ) contained KMES-based internal solution (mM: 105 KMES, 20 NaCl, 5 HEPES, 10 BAPTA, 1.5 MgCl2, 4 MgATP, 0.4 NaGTP, 0.1% biocytin; 285-295 mosmol·l^−1) to facilitate subsequent recordings of action potential properties in whole-cell configuration. Recordings were made in the presence of CNQX (6-cyano-7-nitroquinoxaline-2,3-dione) (10 μM; AMPA/kainate receptor antagonist), picrotoxin (100 μM; GABAA receptor antagonist), strychnine (0.5 μM; glycine and acetylcholine receptor antagonist), and AP5 ((2R)-amino-5-phosphonovaleric acid; (2R)-amino-5-phosphonopentanoate) (100 μM; NMDA receptor antagonist) to minimize presynaptic influences on action potential properties. […] Recordings were sampled at 10 kHz and filtered with a high pass filter at 1 Hz and firing rate was measured in two-minute interval bins. At the end of each cell-attached recording, whole-cell recordings were made in current-clamp mode to confirm retention of normal action potential firing. Data were only included in the analysis if cells had action potential amplitudes that were ≥50 mV above threshold to ensure viable neurons were included. Cells were filled with biocytin and sections were processed to confirm NK1R expression by immunofluorescence. […] The firing time was determined as the duration of the response to last action potential. To assess synaptic transmission, whole-cell configuration recordings were made under control conditions or after exposure to Dy4 or Dy4 inact; a bipolar stimulating electrode was placed at the dorsal root entry zone, and electrically-evoked excitatory postsynaptic currents recorded as described (Imlach, W. L., et al., Molecular Pharmacology, 2015, 88, 460-428).

[5] = tested on: Gαq; experiment: BRET of Gαq activation and trafficking in HEK293 cells; assay type: cell-based; conditions: SP 0.1-10 nM, 15 min
Protocol: Since PKC and cAMP signaling via GPCRs depends on heterotrimeric G-proteins, the capacity of SP to activate G-proteins in endosomes of HEK293 cells was examined. BRET was used to determine the proximity of the NK1R and Gαq to Rab5a and Gγ2. SP (0.1-10 nM) decreased NK1R-RLuc8/KRas-Venus BRET, which mirrored the increase in NK1R-RLuc8/Rab5a-Venus BRET (FIG. 3A, B). […] Immunofluorescence and super-resolution microscopy were used to determine whether Gαq co-localized with the NK1R at the plasma membrane or in endosomes of HEK-NK1R cells. After incubation with SP (10 nM) at 4° C., NK1R immunoreactivity (NK1R-IR) and Gαq-IR were colocalized at the plasma membrane. After washing and warming to 37° C. for 15 min, NK1R-IR and Gαq-IR were co-localized with early endosomal antigen 1 (EEA1) (data not shown). Thus, SP activates this G protein complex by its dissociation and recruits Gαq to endosomes.
HEK293 cells were transfected with the following cDNAs: 1 μg NK1R-RLuc8 or 1 μg CLR-RLuc8+1 μg Myc-RAMP1+4 μg KRas-Venus, 4 μg Rab5a-Venus, 4 μg βarr1-YFP, or 4 μg βarr2-YFP; or 1 μg NK1R+0.5 μg Gαq-RLuc8+1 μg Gβ1+4 μg Gγ2-Venus; or 1 μg NK1R+0.5 μg Gαq-RLuc8+1 μg Gβ1+1 μg Gγ2+4 μg Rab5a-Venus. […] BRET ratios were determined using a microplate reader LUMIstar Omega (BMG LabTech) before and after challenge with SP (0.1-10 nM) or vehicle (dH2O).

NK1R, sequence (P14600 whole entry, the tested form may be a part): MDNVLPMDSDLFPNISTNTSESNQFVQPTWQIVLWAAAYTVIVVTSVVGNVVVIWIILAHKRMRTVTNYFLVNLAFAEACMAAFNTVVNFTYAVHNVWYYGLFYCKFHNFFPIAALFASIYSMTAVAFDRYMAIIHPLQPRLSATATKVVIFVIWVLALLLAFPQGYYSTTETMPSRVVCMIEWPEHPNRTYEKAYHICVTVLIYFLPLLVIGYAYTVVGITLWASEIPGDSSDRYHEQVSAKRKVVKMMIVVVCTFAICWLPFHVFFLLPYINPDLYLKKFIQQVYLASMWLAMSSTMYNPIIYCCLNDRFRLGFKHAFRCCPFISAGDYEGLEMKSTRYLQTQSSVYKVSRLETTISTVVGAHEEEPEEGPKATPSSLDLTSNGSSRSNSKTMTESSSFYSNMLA

Row | Compound | time stable in human CSF [1] [h] | stability after intrathecal injection to mice [2] | IC50 [3] [nM] | firing of action potentials [4] | Gαq-RLuc8/Gγ2-Venus BRET [5] | Gαq-RLuc8/Rab5a-Venus BRET [5]
1 | CC(C)C[C@H](NC(=O)[C@H](CC(C)C)NC(=O)[C@@H](Cc1c[nH]c2ccccc12)NC(=O)[C@H](Cc1ccccc1)NC(=O)[C@@H](Cc1c[nH]c2ccccc12)NC(=O)[C@H](CCC(N)=O)NC(=O)[C@H](CCC(N)=O)NC(=O)[C@@H]1CCCN1C(=O)[C@H](CCCCN)NC(=O)[C@@H]1CCCN1C(=O)[C@H](N)CCCN=C(N)N)C(N)=O [spantide, ^DArg-Pro-Lys-Pro-Gln-Gln-^DTrp-Phe-^DTrp-Leu-Leu-NH2] (H-[dR]PKPQQ[dW]F[dW]LL-NH2) | > 4 | extensively metabolized | 5.89 |  |  | 
2 | SP: substance P, NK1R agonist used as stimulus (RPKPQQFFGLM-NH2; ends and bridges not checked; UniProt P20366 58-68, looked up) |  |  |  | triggered a rapid onset firing of action potentials that was sustained after washout | decreased Gαq-RLuc8/Gγ2-Venus BRET | increased Gαq-RLuc8/Rab5a-Venus BRET
